Tests used:
[1] = Phase two study in IPF patients: treatment emergent adverse events; assay type: in vivo, human; conditions: Phase two trial, 48 weeks
Protocol: A double-blind, placebo-controlled Phase two study was conducted in which 103 patients, randomized (1:1) to receive pamrevlumab or placebo, were treated for 48 weeks. Patients' self-administered the Saint George's Respiratory Questionnaire (SGRQ) to assess changes in health-related quality of life parameters over the course of the study. This questionnaire was developed for patients with chronic airflow limitation and the results correlate well with established measures of symptom level, disease activity and disability. Patients completed the SGRQ on Day 1 (baseline) and every 12 weeks thereafter during the 48-week treatment period. The SGRQ comprises three domains (symptoms, activity, and impact) with the score for each domain ranging from 0 to 100, with higher scores indicating worse health-related quality of life (Jones P W, et al. Respir Med 1991; 85:Suppl B:25-31; Barr J T et al. Clin Ther 2000; 22:1121-45).
Patients in the Phase two clinical trial described above in Example 2 were monitored for the occurrence of treatment emergent adverse events. The percentage of patients treated with an anti-CTGF antibody (pamrevlumab) that experienced diarrhea was 16.0% compared to 7.5% for placebo treated patients. The percentage of patients treated with pamrevlumab that experienced nausea was 14.0% compared to 13.2% for placebo treated patients. […]

[2] = tested on: fibrosis genes in irradiated lung; experiment: Microarray analysis of mRNA transcripts in irradiated lung; assay type: in vivo, mouse
Protocol: C57B1/6 mice were irradiated with 14.5 Gy photons; full thorax, single dose. Treatment with therapeutic agent(s) (pamrevlumab, pirfenidone, and/or nintedanib) was initiated 16 weeks post-irradiation and continued for 8 weeks. Pamrevlumab (FG) was given IP, BIW, at 40 mg/kg; pirfenidone (PF) was given PO in chow, QD, at 300 mg/kg; nintedanib (ND) was given PO in chow, QD, at 100 mg/kg. Treatment with each agent alone, with combinations of two, and with a triple combination were carried out. Controls included non-irradiated mice, mice that were irradiated and not treated, and mice that were irradiated and given human IgG. Endpoint measurements were taken at 24 weeks for HRCT (lung structure), blood gas analysis (lung function), histology and gene expression analysis.
Microarray analysis of mRNA transcripts of numerous genes at 24 weeks after RT were carried out by standard techniques to compare the expression profiles of irradiated and treated animals to irradiated animals that were not further treated. The results of the later group, RT (control), were used to normalize the expression data from the other groups. Briefly, RNA from 4-7 animals per condition (RT (control), RT+hIgG, RT+FG, RT+ND, RT+PF, RT+FG+ND, RT+FG+PF, RT+ND+PF, RT+FG+ND+PF). Affymetrix 430 2.0 data was used. RT induced changes (≥1.5×, p<0.05) were filtered for treatment dependent correction (>50% correction, p<0.05). 80 RT-induced and 68 RT-suppressed transcripts were normalized at least 50% by one or more treatments. The resulting list was dominated by pamrevlumab-dependent normalization. Functional analysis indicated pamrevlumab treatment preferentially normalized RT genes known to be regulated by TGFβ and TNF.

[3] = irradiated mouse lung, 24 weeks after RT, 8 weeks treatment, RT fold change 0.4

For pamrevlumab, the “percentage of patients that experienced diarrhea” value ([1]; placebo 7.5%) was 16.0%, the “percentage of patients that experienced nausea” value ([1]; placebo 13.2%) was 14.0% and the “% Normalization of gene expression, Igfbp5” value ([2]; irradiated mouse lung, 24 weeks after RT, 8 weeks treatment, RT fold change 0.3) was 70%. The “% Normalization of gene expression, Abca3” value [2, 3] was 75%, the “% Normalization of gene expression, Gdf2” value [2, 3] was 68% and the “% Normalization of gene expression, Cx3cl1” value ([2]; irradiated mouse lung, 24 weeks after RT, 8 weeks treatment, RT fold change 0.5) was 57%. For the same substance, the “% Normalization of gene expression, Retnla” value ([2]; irradiated mouse lung, 24 weeks after RT, 8 weeks treatment, RT fold change 2.0) was 43%, the “% Normalization of gene expression, Nt5e” value ([2]; irradiated mouse lung, 24 weeks after RT, 8 weeks treatment, RT fold change 2.1) was 53% and the “% Normalization of gene expression, Plat” value ([2]; irradiated mouse lung, 24 weeks after RT, 8 weeks treatment, RT fold change 2.2) was 51%. The “% Normalization of gene expression, Ccr2” value ([2]; irradiated mouse lung, 24 weeks after RT, 8 weeks treatment, RT fold change 2.4) was 37%, the “% Normalization of gene expression, Igfbp7” value ([2]; irradiated mouse lung, 24 weeks after RT, 8 weeks treatment, RT fold change 2.6) was 50% and the “% Normalization of gene expression, Cdkn2a” value ([2]; irradiated mouse lung, 24 weeks after RT, 8 weeks treatment, RT fold change 2.7) was 35%. The “% Normalization of gene expression, Apln” value ([2]; irradiated mouse lung, 24 weeks after RT, 8 weeks treatment, RT fold change 5.3) was 59%, the “% Normalization of gene expression, Wisp1” value ([2]; irradiated mouse lung, 24 weeks after RT, 8 weeks treatment, RT fold change 6.9) was 52% and the “% Normalization of gene expression, Wisp1” value ([2]; irradiated mouse lung, 24 weeks after RT, 8 weeks treatment, RT fold change 11.9) was 54%. For the same substance, the “normalization of fibrosis-related transcripts” value ([2]; microarray at 24 weeks after RT, monotherapies compared) was “normalized more fibrosis-related transcripts than other monotherapies”.

From patent US20190127456A1, “METHODS OF TREATING IDIOPATHIC PULMONARY FIBROSIS” (FibroGen, Inc., priority 2017, published 2019)
